Biological target: T1, CYP450 3A4 (Homo sapiens, UniProt P08684)
T1 construct: Pooled (n≧15 donors) human hepatic microsomal fraction was obtained from BD-Gentest; tissue BD-Gentest (Woburn, Mass.); host or cells: pooled human liver microsomes (n≥15 donors)
Experiment: CYP3A inhibition assay (terfenadine oxidase, human hepatic microsomal fraction)
Format: biochemical
Conditions: pooled human hepatic microsomes 0.25 mg/mL, terfenadine 3 μM
Procedure: Pooled (n≧15 donors) human hepatic microsomal fraction was obtained from BD-Gentest (Woburn, Mass.) who also supplied hydroxy-terfenadine, 4′-hydroxydiclofenac and NADPH regenerating system. Ritonavir was prepared from commercial Norvir® oral solution (Abbott Laboratories, Abbott Park, Ill.). Other reagents were from Sigma-Aldrich (St. Louis, Mo.) and included terfenadine, fexofenadine, BRL 15572, diclofenac and mefenamic acid.
Incubations were performed in duplicate in 50 mM potassium phosphate buffer, pH 7.4 with NADPH regenerating system used as described by the manufacturer. […] The final substrate concentrations used were equal to the apparent Km values for the activities determined under the same conditions. Inhibitors were dissolved in DMSO, and the final concentration of DMSO, from both substrate and inhibitor vehicles, was 1% (v/v). Incubations were performed at 37° C. with shaking and were initiated by addition of substrate. Aliquots were then removed at 0, 7 and 15 minutes. Samples were quenched by treatment with an acetonitrile, formic acid, water (94.8%/0.2%/5%, v/v/v) mixture containing internal standard. Precipitated protein was removed by centrifugation at 3000 rpm for 10 min and aliquots of the supernatant were then subjected to LC-MS analysis.
The LC-MS system consisted of a Waters Acquity UPLC, with a binary solvent manager and a refrigerated (8° C.) sample organizer and sample manager, interfaced to a Micromass Quattro Premier tandem mass spectrometer operating in electrospray ionization mode. The column was a Waters Acquity UPLC BEH C18 2.1×50 mm, 1.7 μm […]. Mobile phases consisted of mixtures of acetonitrile, formic acid and water, the composition for mobile phase A being 1%/0.2%/98.8% (v/v/v) and that for mobile phase B being 94.8%/0.2%/5% (v/v/v). The injection volumes were 5 μL and the flow rate was 0.8 mL/min. Concentrations of metabolites were determined by reference to standard curves generated with authentic analytes under the same conditions as the incubations. […]

T1 sequence (P08684 whole entry): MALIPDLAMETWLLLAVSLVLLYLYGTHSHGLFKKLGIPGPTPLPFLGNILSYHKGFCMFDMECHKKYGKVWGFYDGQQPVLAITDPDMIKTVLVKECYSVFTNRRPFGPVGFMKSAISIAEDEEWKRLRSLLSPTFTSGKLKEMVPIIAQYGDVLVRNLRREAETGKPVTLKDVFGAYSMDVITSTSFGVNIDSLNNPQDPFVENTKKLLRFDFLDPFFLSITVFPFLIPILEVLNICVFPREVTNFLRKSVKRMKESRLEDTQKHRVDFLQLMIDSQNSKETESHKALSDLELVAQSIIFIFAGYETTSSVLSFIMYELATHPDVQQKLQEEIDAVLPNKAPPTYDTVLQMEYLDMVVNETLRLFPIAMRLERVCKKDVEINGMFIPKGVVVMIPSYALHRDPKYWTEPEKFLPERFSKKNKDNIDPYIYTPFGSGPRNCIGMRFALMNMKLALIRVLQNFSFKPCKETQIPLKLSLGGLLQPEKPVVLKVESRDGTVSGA

Row | IC50 | SMILES
1 | 201 to 500 nM | CC(C)CN(CC[C@H](Cc1ccccc1)NC(=O)O[C@H]1CO[C@H]2OCC[C@H]21)S(=O)(=O)c1ccc(N)cc1 [Example 27]
2 | 501 to 1000 nM | CC(C)CN(CC[C@H](Cc1ccccc1)NC(=O)O[C@H]1CCOC1)S(=O)(=O)c1ccc(N)cc1 [Example 28]
3 | 100 to 200 nM | CC(C)c1nc(CN(C)C(=O)N[C@H](C(=O)N[C@H](CCN(Cc2ccccc2)C(=O)OCc2cncs2)Cc2ccccc2)C(C)C)cs1 [Example 103]
